Measured values reported in PubChem BioAssay (NCI).
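All cell lines were grown in 96-well plates and treated with compound for 48 hours. TGI is the concentration that stops growth completely.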

Assays:
Assay in all cases: NCI tumour cell line growth inhibition, 48 h
UO-31 renal = test system: UO-31 renal
MDA-MB-231 breast = test system: MDA-MB-231 breast
HT29 colon = test system: HT29 colon
OVCAR-4 ovarian = test system: OVCAR-4 ovarian
LOX IMVI melanoma = test system: LOX IMVI melanoma
OVCAR-8 ovarian = test system: OVCAR-8 ovarian
MALME-3M melanoma = test system: MALME-3M melanoma
UACC-257 melanoma = test system: UACC-257 melanoma
RPMI-8226 leukemia = test system: RPMI-8226 leukemia
HL-60(TB) leukemia = test system: HL-60(TB) leukemia
IGROV1 ovarian = test system: IGROV1 ovarian
SR leukemia = test system: SR leukemia
HCT-116 colon = test system: HCT-116 colon
M14 melanoma = test system: M14 melanoma
DU-145 prostate = test system: DU-145 prostate
EKVX NSCLC = test system: EKVX NSCLC
NCI/ADR-RES ovarian = test system: NCI/ADR-RES ovarian
MDA-N = test system: MDA-N
SK-MEL-2 melanoma = test system: SK-MEL-2 melanoma
HCC-2998 colon = test system: HCC-2998 colon

Structure (SMILES)	TGI (UO-31 renal) [µM]	TGI (MDA-MB-231 breast) [µM]	TGI (HT29 colon) [µM]	TGI (OVCAR-4 ovarian) [µM]	TGI (LOX IMVI melanoma) [µM]	TGI (OVCAR-8 ovarian) [µM]	TGI (MALME-3M melanoma) [µM]	TGI (UACC-257 melanoma) [µM]	TGI (RPMI-8226 leukemia) [µM]	TGI (HL-60(TB) leukemia) [µM]	TGI (IGROV1 ovarian) [µM]	TGI (SR leukemia) [µM]	TGI (HCT-116 colon) [µM]	TGI (M14 melanoma) [µM]	TGI (DU-145 prostate) [µM]	TGI (EKVX NSCLC) [µM]	TGI (NCI/ADR-RES ovarian) [µM]	TGI (MDA-N) [µM]	TGI (SK-MEL-2 melanoma) [µM]	TGI (HCC-2998 colon) [µM]
O=c1[nH]c2ccc(Cl)cc2o1	> 100	> 100	> 100	> 100	> 100	> 100	> 100	> 100	> 100	> 100	> 100	> 100	> 100	> 100	> 100	> 100	> 100	> 100	–	–
COc1ccc(C(OCC2OC3(COC(c4ccccc4)(c4ccc(OC)cc4)c4ccc(OC)cc4)C(Oc4nc(=O)ccn43)C2O)(c2ccccc2)c2ccc(OC)cc2)cc1 (stereo not drawn)	> 100	> 100	> 100	> 100	> 100	> 100	> 100	> 100	> 100	> 100	> 100	> 100	> 100	> 100	> 100	> 100	> 100	> 100	> 100	–
CC(NP(=O)(c1ccccc1)c1ccccc1)c1ccccc1 (stereo not drawn)	> 100	> 100	> 100	> 100	> 100	> 100	> 100	> 100	> 100	> 100	> 100	> 100	> 100	> 100	> 100	> 100	> 100	> 100	–	> 100
Cc1ccc(C)n2c1nc1cc3ccccc3cc12	94.4	–	–	–	–	> 100	> 100	> 100	> 100	> 100	> 100	> 100	> 100	> 100	> 100	> 100	> 100	> 100	–	–
O=C(Cn1c2c(c3ccccc31)CCCC2)N1CCCCC1	> 100	–	> 100	> 100	> 100	> 100	> 100	> 100	> 100	> 100	> 100	> 100	> 100	> 100	–	> 100	> 100	> 100	> 100	> 100
CCOC(=O)CC(=O)Nc1cccc2sc3ncccc3c(=O)c12	> 100	> 100	> 100	> 100	> 100	> 100	> 100	> 100	> 100	–	–	> 100	> 100	> 100	> 100	> 100	> 100	> 100	> 100	> 100
COc1ccc(-c2c(-c3ccccc3)c(C)nc3[nH]c(=S)[nH]c(=S)c23)cc1OC	68.4	> 100	> 100	> 100	> 100	> 100	90.1	> 100	> 100	> 100	> 100	–	64.9	> 100	> 100	> 100	> 100	> 100	48.1	> 100
Cc1ccc2c(c1)C=CC1(O2)N(c2ccccc2)C(=S)OC1(C)C (stereo not drawn)	> 100	> 100	> 100	> 100	> 100	> 100	–	> 100	> 100	31.2	> 100	78.9	> 100	> 100	> 100	> 100	> 100	94.3	> 100	> 100
Cc1ccc(C(C)C)c(OCC(=O)N/N=C/c2c[nH]c3ccc(Br)cc23)c1	13.7	9.89	4.78	13.6	16.4	15	21.8	15.9	7.32	7.42	13.1	4.97	11	4.63	8.06	11.1	6.6	2.94	7.22	–
Cc1cc(S(=O)(=O)NC2=NCCCN2)c(S)cc1Cl	> 100	> 100	49.6	> 100	42.6	67.6	72.4	> 100	–	45.9	> 100	56.1	94.1	86.1	> 100	> 100	> 100	> 100	77.7	> 100
COc1ccc2nc3n(c2c1)C(c1c(F)cccc1F)SC3 (stereo not drawn)	> 100	> 100	> 100	> 100	> 100	> 100	–	> 100	> 100	78.7	> 100	> 100	75.2	> 100	> 100	55	59.2	> 100	74.9	> 100
CC(=O)NC1CC(C(C)(C)NC(C)=O)CC=C1C (stereo not drawn)	> 100	> 100	> 100	> 100	> 100	> 100	–	> 100	–	> 100	> 100	> 100	> 100	> 100	> 100	> 100	> 100	> 100	–	> 100
Cc1cc2c(nn1)CCc1c-2no[n+]1[O-]	> 100	> 100	> 100	> 100	> 100	> 100	> 100	> 100	> 100	–	> 100	> 100	> 100	> 100	–	> 100	> 100	> 100	> 100	> 100
O=c1[nH]nc(-c2ccccc2)n1-c1cccc([N+](=O)[O-])c1	> 100	> 100	> 100	> 100	> 100	> 100	> 100	> 100	> 100	–	> 100	> 100	> 100	> 100	> 100	> 100	> 100	> 100	> 100	> 100
CSc1ncc2c(C#N)c3[nH]c4ccccc4n3c(=O)c2n1	> 100	> 100	–	> 100	> 100	98.8	–	> 100	12.3	25.1	> 100	34.5	57.5	> 100	> 100	> 100	99.3	> 100	33	42.7
CCOC(=O)c1c(N2CCOCC2)ncn(-c2cccc(Cl)c2)c1=O	–	> 100	> 100	> 100	> 100	> 100	> 100	> 100	> 100	> 100	> 100	–	> 100	> 100	> 100	> 100	> 100	> 100	> 100	> 100
C1=Nc2ccc(cc2)-c2ccc(cc2)N=Cc2ccc(cc2)OCc2cccc(n2)COc2ccc1cc2	> 100	> 100	> 100	> 100	–	> 100	> 100	> 100	> 100	> 100	> 100	> 100	> 100	> 100	> 100	> 100	> 100	> 100	> 100	–
CCOC(=O)[C@@H]1ON2O[C@@H](OC3CCCCC3c3ccccc3)C[C@H]3OC(=O)[C@@H]1C32 (stereo partly drawn)	> 100	> 100	> 100	–	> 100	> 100	–	> 100	> 100	–	> 100	> 100	> 100	> 100	> 100	> 100	> 100	> 100	–	> 100
CC(C)(C)n1c(=O)n(-c2ccccc2)n(C(C)(C)C)c1=O	> 100	> 100	> 100	> 100	> 100	> 100	> 100	> 100	–	> 100	> 100	> 100	> 100	> 100	–	> 100	> 100	> 100	> 100	> 100
O=C(O/N=c1/ccc(=O)/c(=N\OC(=O)c2ccccc2)c1=O)c1ccccc1	> 100	–	> 100	> 100	> 100	> 100	–	–	> 100	52.1	> 100	> 100	> 100	> 100	–	> 100	> 100	> 100	–	> 100
CC(=O)N1C(=O)c2cc3ccccc3cc21	> 100	> 100	–	–	> 100	> 100	–	–	> 100	> 100	> 100	> 100	> 100	> 100	> 100	> 100	> 100	> 100	> 100	> 100
N#C/C(=C\c1ccc([N+](=O)[O-])o1)c1n[nH]c(Cc2ccccc2)n1	9.74	5	2.83	3.55	3.85	> 25.1	4.4	4.26	1.4	6.83	3.11	–	0.668	3.92	3	8.31	12.8	4.52	4.34	3.12
CC[C@@H]([C@H](O)c1ccccc1Cl)[N+](=O)[O-]	> 100	> 100	> 100	> 100	> 100	> 100	–	> 100	> 100	> 100	> 100	> 100	> 100	> 100	> 100	> 100	> 100	> 100	> 100	> 100
CN(/N=C/C=N/N(C)C1=NCCCN1)C1=NCCCN1	> 100	> 100	> 100	> 100	> 100	> 100	> 100	> 100	–	–	> 100	> 100	> 100	> 100	–	> 100	> 100	> 100	–	> 100
CC(=O)O[C@H]1CC[C@H]2[C@@H]3CCC4=C/C(=N/OCCN(C)C)CC[C@]4(C)[C@H]3CC[C@]12C	28.1	39.5	6.8	23.5	11	28.1	28.6	21.1	6.27	3.68	26.2	–	16	10.1	31	29	27.8	14.4	26.9	19
COC(=O)CSc1nc2[nH]c(SC)c(C(N)=O)c2c(=O)n1-c1ccccc1	–	> 10	> 10	> 10	> 10	> 10	> 10	> 10	> 10	> 10	> 10	> 10	–	> 10	> 10	> 10	–	> 10	–	> 10
